Data on twelve compounds can be found in patent publication US10329278B2, “Pharmaceutical compounds” (Heptares Therapeutics Limited, priority 2017, dated 2019).

The structures appear in SMILES notation. Values joined by “and” are separate entries in the source; they are usually repeats but may differ in a detail not shown here. Identical values can stand only once. Some results are limits rather than exact numbers.

Format in all cases: cell-based
The target in experiment [1] is T1, human muscarinic M3 receptor (Homo sapiens, UniProt P20309).
T1 construct: expressed in transfected cells
Description: Alphascreen Surefire phospho-ERK1/2 functional assay, M3. The following applies: for pEC50 M3 / % Emax cf. ACh (M3) / EC50: CHO cells stably expressing human M3; for pEC50 M3 / EC50: agonist 5 min, 37° C.; for % Emax cf. ACh (M3): relative to ACh; for EC50: read-out: pEC50 M3 (converted); for Emax: CHO, read-out: % Emax cf. ACh (M3). As to the method:
(§1) ERK1/2 phosphorylation is a downstream consequence of both Gq/11 and Gi/o protein coupled receptor activation, making it highly suitable for the assessment of M1, M3 (Gq/11 coupled) and M2, M4 receptors (Gi/o coupled), rather than using different assay formats for different receptor subtypes. CHO cells stably expressing the human muscarinic M1, M2, M3 or M4 receptor were plated (25K/well) onto 96-well tissue culture plates in MEM-alpha+10% dialysed FBS. Once adhered, cells were serum-starved overnight. Agonist stimulation was performed by the addition of 5 μL agonist to the cells for 5 min (37° C.). Media was removed and 50 μL of lysis buffer added. After 15 min, a 4 μL sample was transferred to 384-well plate and 7 μL of detection mixture added.
On the technique in general: Bead proximity is the source of the signal in Alpha formats.

The target in experiment [2] is T2, human muscarinic M4 receptor (Homo sapiens, UniProt P08173).
T2 construct: expressed in transfected cells
T2 sequence (P08173 1-479): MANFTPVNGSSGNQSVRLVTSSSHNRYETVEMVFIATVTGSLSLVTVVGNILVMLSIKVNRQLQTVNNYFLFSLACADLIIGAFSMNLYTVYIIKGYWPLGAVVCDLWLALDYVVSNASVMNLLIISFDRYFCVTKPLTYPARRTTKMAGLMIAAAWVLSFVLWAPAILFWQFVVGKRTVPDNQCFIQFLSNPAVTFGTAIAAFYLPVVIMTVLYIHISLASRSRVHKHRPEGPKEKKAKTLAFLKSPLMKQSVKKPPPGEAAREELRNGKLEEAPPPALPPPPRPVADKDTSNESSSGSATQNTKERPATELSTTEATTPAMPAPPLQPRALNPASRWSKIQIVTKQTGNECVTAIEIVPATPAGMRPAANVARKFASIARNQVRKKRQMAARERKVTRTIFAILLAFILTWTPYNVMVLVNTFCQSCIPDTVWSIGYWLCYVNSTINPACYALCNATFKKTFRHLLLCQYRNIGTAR
The experiment can be described thus: Alphascreen Surefire phospho-ERK1/2 functional assay, M4. The note with it: for pEC50 M4 / % Emax cf. ACh (M4) / EC50: CHO cells stably expressing human M4; for pEC50 M4 / EC50: agonist 5 min, 37° C.; for % Emax cf. ACh (M4) / Emax: relative to ACh; for EC50: read-out: pEC50 M4 (converted); for Emax: CHO, read-out: % Emax cf. ACh (M4), CHO cells stably expressing human M4. As to the method:
as §1

The target of experiment [3] is T3, human muscarinic M2 receptor (Homo sapiens, UniProt P08172).
T3 sequence (P08172 1-466): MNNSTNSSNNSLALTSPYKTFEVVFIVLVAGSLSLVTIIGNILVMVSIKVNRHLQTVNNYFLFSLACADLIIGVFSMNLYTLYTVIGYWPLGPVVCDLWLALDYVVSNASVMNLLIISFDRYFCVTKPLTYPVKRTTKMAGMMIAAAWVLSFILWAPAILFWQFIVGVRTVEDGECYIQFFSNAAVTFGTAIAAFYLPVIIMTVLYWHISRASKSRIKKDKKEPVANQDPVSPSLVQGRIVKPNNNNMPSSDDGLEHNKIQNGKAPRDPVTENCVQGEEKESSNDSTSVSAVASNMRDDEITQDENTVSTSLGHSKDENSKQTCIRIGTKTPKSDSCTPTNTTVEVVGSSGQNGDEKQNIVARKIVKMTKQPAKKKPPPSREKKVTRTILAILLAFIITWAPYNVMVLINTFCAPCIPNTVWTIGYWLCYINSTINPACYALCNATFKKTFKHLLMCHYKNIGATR
The experiment can be described thus: Alphascreen Surefire phospho-ERK1/2 functional assay, M2. The following applies: for pEC50 M2 / % Emax cf. ACh (M2) / EC50: CHO cells stably expressing human M2; for pEC50 M2 / EC50: agonist 5 min, 37° C.; for % Emax cf. ACh (M2): relative to ACh; for EC50: read-out: pEC50 M2 (converted); for Emax: CHO, read-out: % Emax cf. ACh (M2). As to the method:
as §1

In experiment [4] the target is T4, human muscarinic M1 receptor (Homo sapiens, UniProt P11229).
T4 sequence (P11229 1-460): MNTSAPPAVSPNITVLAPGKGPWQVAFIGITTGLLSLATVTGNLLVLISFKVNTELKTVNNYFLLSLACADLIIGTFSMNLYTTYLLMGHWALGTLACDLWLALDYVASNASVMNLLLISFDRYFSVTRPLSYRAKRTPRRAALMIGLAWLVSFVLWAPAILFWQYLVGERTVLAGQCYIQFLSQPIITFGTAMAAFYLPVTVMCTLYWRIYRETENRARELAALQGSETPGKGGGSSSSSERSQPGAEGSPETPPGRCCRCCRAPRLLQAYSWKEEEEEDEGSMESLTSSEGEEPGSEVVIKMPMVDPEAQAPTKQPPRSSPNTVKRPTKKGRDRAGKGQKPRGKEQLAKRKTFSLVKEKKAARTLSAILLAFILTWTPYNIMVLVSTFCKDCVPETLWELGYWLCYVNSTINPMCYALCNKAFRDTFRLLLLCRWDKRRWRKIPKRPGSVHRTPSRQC
The experiment can be described thus: Alphascreen Surefire phospho-ERK1/2 functional assay, M1. The note with it: for pEC50 M1 / % Emax cf. ACh (M1) / EC50: CHO cells stably expressing human M1; for pEC50 M1 / EC50: agonist 5 min, 37° C.; for % Emax cf. ACh (M1) / Emax: relative to ACh; for EC50: read-out: pEC50 M1 (converted); for Emax: CHO, read-out: % Emax cf. ACh (M1), CHO cells stably expressing human M1. As to the method: as §1

T1 sequence (P20309 whole entry): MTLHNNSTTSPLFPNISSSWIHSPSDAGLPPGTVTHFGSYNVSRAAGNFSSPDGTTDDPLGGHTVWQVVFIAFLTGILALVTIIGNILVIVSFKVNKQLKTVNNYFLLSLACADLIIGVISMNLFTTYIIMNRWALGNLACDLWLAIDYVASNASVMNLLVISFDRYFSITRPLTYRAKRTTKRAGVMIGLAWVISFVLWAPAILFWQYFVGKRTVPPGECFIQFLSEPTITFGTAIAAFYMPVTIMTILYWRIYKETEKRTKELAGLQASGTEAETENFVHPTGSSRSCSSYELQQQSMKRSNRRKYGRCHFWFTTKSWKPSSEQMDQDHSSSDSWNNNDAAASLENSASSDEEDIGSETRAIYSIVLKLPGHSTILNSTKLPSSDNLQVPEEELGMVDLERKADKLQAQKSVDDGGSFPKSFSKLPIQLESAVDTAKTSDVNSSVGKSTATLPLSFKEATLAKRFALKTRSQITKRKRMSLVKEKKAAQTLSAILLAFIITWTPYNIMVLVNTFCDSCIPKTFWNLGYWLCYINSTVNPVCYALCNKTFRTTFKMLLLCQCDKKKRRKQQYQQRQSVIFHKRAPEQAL

`CCOC(=O)N1C2COCC1CC(N1CC3C(C1)C3C(=O)N1CCOCC1)C2` (single isomer, unassigned; isomer 1) [10-13 Isomer 1]: in experiment [1], the “pEC50 M3” value is given as less than 4.70 and the “% Emax cf. ACh (M3)” value stood at 68%. Further, in experiment [2], the “pEC50 M4” value was determined as 5.95 and the “% Emax cf. ACh (M4)” value came to 64%. Further, in experiment [3], the “pEC50 M2” value is given as less than 4.70 and the “% Emax cf. ACh (M2)” value is given as 24%. In experiment [4], the “pEC50 M1” value turned out to be 6.51 and the “% Emax cf. ACh (M1)” value turned out to be 104%.

As to `CCOC(=O)[C@H]1[C@@H]2CN(C3CC4(C3)CN(C(=O)OCC)C4)C[C@@H]21` [Example 1-1, ethyl 6-[(1R,5S,6r)-6-(ethoxycarbonyl)-3-azabicyclo[3.1.0]hex-3-yl]-2-azaspiro[3.3]heptane-2-carboxylate], the EC50 was greater than 20 µM in experiment [1], 0.316 µM in experiment [2], greater than 20 µM in experiment [3] and 9.33 µM in experiment [4]. For the same compound, the Emax amounted to 6% in experiment [1], 73% in experiment [2], 12% in experiment [3] and 115% in experiment [4].

With `CCOC(=O)C1C2CN(C3CC4(CCN(C(=O)OCC)C4)C3)CC21` (mixture of isomers) [2-1 Mixture of isomers], the EC50 was greater than 20 µM in experiment [1], 0.0776 µM in experiment [2], greater than 20 µM in experiment [3] and greater than 20 µM in experiment [4]. Besides, the Emax came to 0% in experiment [1], 86% in experiment [2], 7% in experiment [3] and 22% in experiment [4].

Take `CCOC(=O)N1CCC2(CC(N3CC4C(C3)C4C(CC)=NOC)C2)C1` (single isomer, unassigned) [2-25 Isomer 4]: in experiment [1], the EC50 was greater than 20 µM and the maximal effect (Emax) was 4%. Further, in experiment [2], the EC50 was 0.151 µM and the “% Emax cf. ACh (M4)” value amounted to 48%. Moreover, in experiment [3], the EC50 is greater than 20 µM and the maximum response (Emax) turned out to be 24%. In experiment [4], the EC50 is 0.324 µM and the “% Emax cf. ACh (M1)” value was determined as 65%.

`CCOC(=O)N1C2CCCC1CC(N1CC3C(C1)C3C(=O)N(C)CC)C2` (single isomer, unassigned; isomer 1) [9-1 Isomer 1]: in experiment [1], the “pEC50 M3” value is on record as less than 4.70 and the “% Emax cf. ACh (M3)” value was 21%. In experiment [2], the “pEC50 M4” value was 6.06 and the “% Emax cf. ACh (M4)” value is 57%. For the same compound, in experiment [3], the “pEC50 M2” value is less than 4.70 and the “% Emax cf. ACh (M2)” value is 19%. In experiment [4], the “pEC50 M1” value is listed as 7.04 and the “% Emax cf. ACh (M1)” value is on record as 93%.

Take `CCOC(=O)N1CCC2(CC(N3CC4C(C3)C4OC(C)c3ccccc3)C2)C1` (single isomer, unassigned) [2-28 Isomer 2]: in experiment [1], the EC50 was greater than 20 µM and the Emax worked out at 5%. Further, in experiment [2], the EC50 was 0.0537 µM and the “% Emax cf. ACh (M4)” value came out at 51%. Further, in experiment [3], the EC50 was greater than 20 µM and the maximal effect (Emax) is 7%. In addition, in experiment [4], the EC50 is 0.0646 µM and the “% Emax cf. ACh (M1)” value amounted to 104%.

On to `CCOC(=O)N1CCC2(CC(N3CC4C(C3)C4C(=O)N3CCC34CC4)C2)C1` (single isomer, unassigned) [2-19 Isomer 2], for which the EC50 is greater than 20 µM in experiment [1], 0.0372 µM in experiment [2], greater than 20 µM in experiment [3] and 0.0132 µM in experiment [4]. In addition, the maximal effect (Emax) was found to be 35% in experiment [1], 95% in experiment [2], 16% in experiment [3] and 93% in experiment [4].

Consider `CCOC(=O)N1CCC2(CC(N3C[C@@H]4[C@H](C3)[C@H]4c3ccnn3C)C2)C1` (single isomer, unassigned) [2-29 Isomer 2], for which the EC50 in experiment [1] was greater than 20 µM; in experiment [2], 0.0871 µM; in experiment [3] it was greater than 20 µM; in experiment [4], 0.646 µM. Further, the Emax in experiment [1] was found to be 2%; in experiment [2] it was 83%; in experiment [3], 36%; in experiment [4] it was 43%.

Regarding `CCOC(=O)N1C2COCC1CC(N1CC3C(C1)C3C(=O)N(CC)C1CC1)C2` (single isomer, unassigned; isomer 2) [10-9 Isomer 2], in experiment [2], the “pEC50 M4” value came to 5.47 and the “% Emax cf. ACh (M4)” value is listed as 38%. In experiment [4], the “pEC50 M1” value is recorded as 6.57 and the “% Emax cf. ACh (M1)” value was found to be 105%.

With `CCOC(=O)N1C2COCC1CC(N1CC3C(C1)C3C(=O)N(CC)CC)C2` (single isomer, unassigned; isomer 2) [10-2 Isomer 2], in experiment [1], the “pEC50 M3” value is less than 4.70 and the “% Emax cf. ACh (M3)” value stood at 10%. In addition, in experiment [2], the “pEC50 M4” value turned out to be 6.04 and the “% Emax cf. ACh (M4)” value is given as 62%. Moreover, in experiment [3], the “pEC50 M2” value is less than 4.70 and the “% Emax cf. ACh (M2)” value is on record as 25%. In addition, in experiment [4], the “pEC50 M1” value stood at 7.15 and the “% Emax cf. ACh (M1)” value worked out at 113%.

Turning to `CCOC(=O)N1C2COCC1CC(N1CC3C(C1)C3C(=O)N(C)CC)C2` (single isomer, unassigned; isomer 1) [10-1 Isomer 1], in experiment [2], the “pEC50 M4” value is given as less than 4.70; the “% Emax cf. ACh (M4)” value is 24% and 15%. Besides, in experiment [4], the “pEC50 M1” value is 5.94 and 5.76; the “% Emax cf. ACh (M1)” value was 110% and 78%.

As for `CCOC(=O)N1C2COCC1CC(N1CC3C(C1)C3C(=O)N1CCOCC1)C2` (single isomer, unassigned; isomer 2) [10-13 Isomer 2], in experiment [1], the “pEC50 M3” value was less than 4.70 and the “% Emax cf. ACh (M3)” value is 22%. Besides, in experiment [2], the “pEC50 M4” value is reported as 4.99 and the “% Emax cf. ACh (M4)” value is 59%. Further, in experiment [3], the “pEC50 M2” value was less than 4.70 and the “% Emax cf. ACh (M2)” value is listed as 24%. Besides, in experiment [4], the “pEC50 M1” value is recorded as 6.43 and the “% Emax cf. ACh (M1)” value stood at 101%.

The Emax is the greatest response seen or fitted, relative to the assay's reference.
